Earlier results, collected in publication PMC6929995, “Rod-shape theranostic nanoparticles facilitate antiretroviral drug biodistribution and activity in human immunodeficiency virus susceptible cells and tissues” (Theranostics, 2020).

Test system: HIV-1

## Cc1cc(/C=C/C#N)cc(C)c1Nc1ccnc(Nc2ccc(C#N)cc2)n1 [RPV, rilpivirine]
  potency: sub-nanomolar range
